What was measured:
mature miR-10b = assay: RT-qPCR of mature miR-10b; type: cell-based, human; conditions: AGS gastric cell line; normalized to U6; vs DMSO
Method: (§1) Potential small molecule miRNA inhibitors were tested in MCF7 cells, a metastatic cell line (MM231) and an HCC cell line (HepG2) through RT-qPCR. Cells were seeded in 12-well plates 24 h before treatments at a confluence of 50-60%. They were treated at a concentration of 10 μM linifanib (positive control) or DMSO (negative control), and RNA was collected after 24 and 48 h. MicroRNA expression was tested using TaqMan microRNA assay (Applied Biosystems). The cDNA was synthesized using TaqMan Reverse Transcription Reagents kit (Applied Biosystems) and employed for quantitative RT-qPCR analysis together with TaqMan probes and SsoFastSupermix (Bio-rad). Primers and probes were purchased for hsa-miR-10b, hsa-pri-miR-10b, U6, and U48 snRNA that was used as an internal control.
(§2) To detect the levels of the precursor sequences, cDNA was synthesized using the SuperScript III cDNA kit (Invitrogen). Diluted cDNA was used for RT-qPCR analysis using iQ SYBR Green Supermix (Bio-Rad) with primers designed by in-house. Experiments were performed in triplicate; treated samples were compared to the DMSO-treated controls and normalized to the internal control. Relative expression levels were calculated using the 2-ΔCt method.

miR-10b [1] = assay: Luciferase reporter assay of miR-10b inhibition, MCF7 cells; type: cell-based; conditions: Homo sapiens, MCF7, 48 h
Excerpt: (§3) To identify miR-10b inhibitors, a luciferase reporter system was designed with complementary oligonucleotides for miR-10b.This luciferase reporter would repress Renilla luciferase signal in the presence of a functional mature miR-10b. However, in the presence of a small molecule that can inhibit mature miR-10b expression or affect its downstream function, the luciferase expression is restored again.
(§4) The PsiCHECK™-2 luciferase reporter vector was acquired from Promega™, Complementary oligonucleotides for hsa-miR-10b were designed based on the mature miRNA sequence and obtained from Thermo Fisher Scientific. In the design of the microRNA target sequence, several base pairs were added to have two different restriction sites recognizable by the enzyme SgfI at one side, and PmeI on the other (present in the vector as well). In addition, the insert was designed with a restriction site for SacI enzyme in order to have an additional site to digest the vector when monitoring colonies for the presence/absence of the insert. The designed oligonucleotides were annealed as follows: Complementary strands were mixed at a 1:1 molar ratio in a micro centrifuge tube. The mixture was diluted to a final concentration of 1 pmol/μl with a buffer solution of 10 mM Tris, 1 mM EDTA, and 50 mM NaCl (pH 8.0). Mixes were incubated at 95° C. for 5 min, and then the heat was reduced gradually for 70 min, until reaching 4° C. The annealed oligonucleotides were digested along with the PsiCHECK™2 vector with SgfI and PmeI and ligated at the 3′-UTR (downstream) of the Renilla luciferase reporter gene in the PsiCHECK™-2vector. Insert sequences were further confirmed in two ways: enzymatic digestion and sequencing.
(§5) MCF7 cells were seeded 24 h prior to transfection in 96 well plates (2.0×10^4 cells/well). For testing the sensitivity of the assay, antagomiRs and pre-miRs against miR-10b were used at a final concentration of 100 nM. For testing small molecule miRNA inhibitors, the compounds of interest were added to a final concentration of 10 μM. The assay was done in MCF7 or MDA-MB-231 cells at approximately 60% confluence using Lipofectamine in Opti-Mem media with the final vector concentration of 250 ng/mL. All transfections were performed in triplicate for statistical analysis. The cells were incubated at 37° C. for 6 h, followed by replacement of the transfected media with fresh media. After 48 h incubation, the media was removed, and cells were lysed and assayed with a Dual Luciferase Assay Kit (Promega) using a Vi-Tech luminometer. The ratio of Renilla to firefly luciferase expression was calculated for each of the triplicates.

miR-10b [2] = assay: Luciferase reporter assay of miR-10b inhibition, MDA-MB-231 cells; type: cell-based; conditions: Homo sapiens, MDA-MB-231, 48 h
Excerpt: as §3, §4, §5

pre-miR-10b = assay: RT-qPCR of precursor miR-10b; type: cell-based, human; conditions: AGS gastric cell line; normalized to U6; vs DMSO
Method: as §1, §2

[3] = Microsomal stability assay, rat; type: in vitro ADME; conditions: rat, liver microsomes, pH 7.4, rat liver microsomes; 1 μM test compound; unit printed in b356 only
Method: (§6) The liver microsomal incubation mixture was composed of liver microsomes (with a concentration of 0.5 mg microsomal protein/ml), the test compound (1 μM), MgCl2 (3 mM), EDTA (1 mM) in potassium phosphate buffer (100 mM, pH 7.4). Control substrates used were Midazolam and Ketanserin. The reaction was initiated with the addition of an NADPH regeneration solution (1.3 mM NADPH) and maintained at 37° C. with shaking. At five sequential time points ranging from 0 to 45 min, aliquots of the mixture (50 μL) were removed and quenched with acetonitrile (100 μL) containing an internal standard control (imipramine) Samples were analyzed after vortexing and centrifugation by liquid chromatography-mass spectrometry (LC-MS/MS). The in vitro t1/2 was then calculated and clearance followed literature.

[4] = Microsomal stability assay, human; type: in vitro ADME; conditions: pH 7.4; human liver microsomes; 1 μM test compound; unit printed in b356 only
Method: as §6

[5] = Microsomal stability assay, mouse; type: in vitro ADME; conditions: mouse, liver microsomes, pH 7.4, mouse liver microsomes; 1 μM test compound; unit printed in b356 only
Method: as §6

[6] = Table 3, MCF7, 10 μM compound, vs negative control (DMSO), mean of triplicate, read-out: n-fold increase in luciferase expression, Mean
[7] = Table 3, MCF7, 10 μM compound, vs negative control (DMSO), replicate #1, read-out: n-fold increase in luciferase expression, #1
[8] = Table 3, MCF7, 10 μM compound, vs negative control (DMSO), replicate #2, read-out: n-fold increase in luciferase expression, #2
[9] = Table 3, MCF7, 10 μM compound, vs negative control (DMSO), replicate #3, read-out: n-fold increase in luciferase expression, #3
[10] = Table 6, MCF7, second biological replicant, 10 μM compound, mean of triplicate, read-out: n-fold increase in luciferase expression, Mean
[11] = Table 6, MCF7, second biological replicant, 10 μM compound, replicate #1, read-out: n-fold increase in luciferase expression, #1
[12] = Table 6, MCF7, second biological replicant, 10 μM compound, replicate #2, read-out: n-fold increase in luciferase expression, #2
[13] = Table 6, MCF7, second biological replicant, 10 μM compound, replicate #3, read-out: n-fold increase in luciferase expression, #3
[14] = Table 5, MDA-MB-231, 10 μM compound, vs negative control (DMSO), mean of triplicate, read-out: n-fold increase in luciferase expression, Mean
[15] = Table 5, MDA-MB-231, 10 μM compound, vs negative control (DMSO), replicate #1, read-out: n-fold increase in luciferase expression, #1
[16] = Table 5, MDA-MB-231, 10 μM compound, vs negative control (DMSO), replicate #2, read-out: n-fold increase in luciferase expression, #2
[17] = Table 5, MDA-MB-231, 10 μM compound, vs negative control (DMSO), replicate #3, read-out: n-fold increase in luciferase expression, #3
[18] = Table 7, MDA-MB-231, second biological replicant, 10 μM compound, mean of triplicate, read-out: n-fold increase in luciferase expression, Mean
[19] = Table 7, MDA-MB-231, second biological replicant, 10 μM compound, replicate #1, read-out: n-fold increase in luciferase expression, #1
[20] = Table 7, MDA-MB-231, second biological replicant, 10 μM compound, replicate #2, read-out: n-fold increase in luciferase expression, #2
[21] = Table 7, MDA-MB-231, second biological replicant, 10 μM compound, replicate #3, read-out: n-fold increase in luciferase expression, #3

| SMILES | fold induction at 10 µM (miR-10b [1]; [6]) | fold induction at 10 µM (miR-10b [1]; [7]) | fold induction at 10 µM (miR-10b [1]; [8]) | fold induction at 10 µM (miR-10b [1]; [9]) | fold induction at 10 µM (miR-10b [1]; [10]) | fold induction at 10 µM (miR-10b [1]; [11]) | fold induction at 10 µM (miR-10b [1]; [12]) | fold induction at 10 µM (miR-10b [1]; [13]) | fold induction at 10 µM (miR-10b [2]; [14]) | fold induction at 10 µM (miR-10b [2]; [15]) | fold induction at 10 µM (miR-10b [2]; [16]) | fold induction at 10 µM (miR-10b [2]; [17]) | fold induction at 10 µM (miR-10b [2]; [18]) | fold induction at 10 µM (miR-10b [2]; [19]) | fold induction at 10 µM (miR-10b [2]; [20]) | fold induction at 10 µM (miR-10b [2]; [21]) | also measured |
| --- | --- | --- | --- | --- | --- | --- | --- | --- | --- | --- | --- | --- | --- | --- | --- | --- | --- |
| Cc1ccc(F)c(NC(=O)Nc2ccc(-c3cnc(N)nc3)cc2)c1 [Example 5, 1-(4-(2-aminopyrimidin-5-yl)phenyl)-3-(2-fluoro-5-methylphenyl)urea] | 2.86 | 1.99 | 1.49 | 5.1 | 2.12 | 3.03 | 1.73 | 1.59 | 1.04 | 1.13 | 1.01 | 0.99 | 1.3 | 0.26 | 1.57 | 2.06 | level of mature miR-10b (mature miR-10b): reduce the level of mature miR-10b; expression of pre-miR-10b (pre-miR-10b): increased expression of pre-miR-10b |
| Cc1ccc(F)c(NC(=O)Nc2ccc(-c3cccc4[nH]nc(N)c34)cc2)c1 [Example 10, 1-(4-(3-amino-1H-indazol-4-yl)phenyl)-3-(2-fluoro-5-methylphenyl)urea, reference compound] | 2.5 | 2.74 | 2.52 | 2.25 | 17.9 | 25.6 | 14.6 | 13.4 | 1.87 | 1.51 | 1.14 | 2.95 | 1.97 | 2.99 | 2.24 | 0.69 | CLint scaled at 1 μM [3]: 20.4 mL/min/kg; half-life at 1 μM [3]: 2.03 h; fold induction at 10 µM (miR-10b [1]; Table 4, MCF7, 10 μM compound, vs negative control (DMSO), mean of triplicate, read-out: n-fold increase in luciferase expression, Mean): 1.97; fold induction at 10 µM (miR-10b [1]; Table 4, MCF7, 10 μM compound, vs negative control (DMSO), replicate #1, read-out: n-fold increase in luciferase expression, #1): 2.56; fold induction at 10 µM (miR-10b [1]; Table 4, MCF7, 10 μM compound, vs negative control (DMSO), replicate #2, read-out: n-fold increase in luciferase expression, #2): 1.58; fold induction at 10 µM (miR-10b [1]; Table 4, MCF7, 10 μM compound, vs negative control (DMSO), replicate #3, read-out: n-fold increase in luciferase expression, #3): 1.78; CLint scaled at 1 μM [4]: 8.8 mL/min/kg; half-life at 1 μM [4]: 3.28 h; CLint scaled at 1 μM [5]: 86.5 mL/min/kg; half-life at 1 μM [5]: 1.05 h |
